# Molecular target: Neuronal acetylcholine receptor subunit alpha-7 (Homo sapiens, UniProt P36544)
# Test: Positive allosteric modulation of human alpha7 nAChR expressed in HEK cells assessed as potentiation of acetylcholine induced peak current amplitude preincubated for 58 secs followed by acetylcholine stimulation for 1 secs by automated patch-clamp electrophysiology
# Format: cell-based
# Sequence of Neuronal acetylcholine receptor subunit alpha-7 (P36544 whole entry): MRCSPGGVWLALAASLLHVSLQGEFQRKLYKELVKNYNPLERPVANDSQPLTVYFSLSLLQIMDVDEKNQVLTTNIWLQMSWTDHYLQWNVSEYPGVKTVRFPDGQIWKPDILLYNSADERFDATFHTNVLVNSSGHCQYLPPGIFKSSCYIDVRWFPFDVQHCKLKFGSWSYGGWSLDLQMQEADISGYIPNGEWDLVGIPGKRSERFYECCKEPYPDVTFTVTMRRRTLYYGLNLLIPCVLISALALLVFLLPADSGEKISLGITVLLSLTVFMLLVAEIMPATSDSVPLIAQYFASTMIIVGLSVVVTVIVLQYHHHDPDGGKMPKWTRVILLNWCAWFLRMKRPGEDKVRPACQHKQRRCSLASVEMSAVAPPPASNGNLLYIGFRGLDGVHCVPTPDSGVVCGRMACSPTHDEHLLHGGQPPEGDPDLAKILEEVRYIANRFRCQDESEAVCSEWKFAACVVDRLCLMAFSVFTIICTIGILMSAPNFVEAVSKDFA
row,EC50 [nM],SMILES
1,740,CCOc1ccc([C@H](COC)NC(=O)C2CC23CCCc2ccccc23)cc1 (some centres undefined)
2,770,O=C(N[C@@H](CO)C1CCCCC1)C1CC12COc1ccc(F)cc12 (some centres undefined)
3,3200,O=C(NC1(c2ccc(F)cc2)COC1)C1CC12CCc1ccccc12 (centres undefined)
4,630,O=C(N[C@@H](CO)C1CCCCC1)C1CC12COc1ccccc12 (some centres undefined)
5,590,CCOc1ccc([C@H](COC)NC(=O)C2CC23CCc2cc(F)ccc23)cc1 (some centres undefined)
6,820,O=C(NC1(c2ccc(F)cc2)COC1)C1CC12CCc1ccc(F)cc12 (centres undefined)
7,700,CCOc1ccc([C@H](COC)NC(=O)C2CC23CCc2ccc(F)cc23)cc1 (some centres undefined)
8,790,CCOc1ccc([C@H](CF)NC(=O)C2CC23COc2ccc(F)cc23)cn1 (some centres undefined)
9,3000,CCOc1ccc([C@@H](NC(=O)C2CC23COc2ccc(F)cc23)C(F)F)cn1 (some centres undefined)
